From patent publication US8569327B2, “Phenanthroindolizidine derivative and NFκB inhibitor containing same as active ingredient” (Kabushiki Kaisha Yakult Honsha, priority 2008, dated 2013) come the findings set out here.

The IC50 is the midpoint of a concentration-inhibition curve.

One data set deals with NFκB. In words: Inhibitory action on the NFκB activity, luciferase assay in SW480/NRE-Luc cells. Format: cell-based, human. As to conditions: for NFκB inhibitory activity IC50: SW480/NRE-Luc cells, compound 1 h then 50 ng/mL TNFα 4 h, luciferase; for IC50: Homo sapiens, SW480, read-out: NFκB inhibitory activity IC50. An outline of the steps:
(§1)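 Stable SW480 colon cancer lines carried luciferase driven by a 5× NFκB response element or by the SV40 promoter. Compound was added 1 h before 50 ng/mL TNFα, followed by 4 h culture at 37 °C; luminescence was read and IC50 taken as 50% inhibition of induced luciferase expression.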

A further data set deals with SV40 promoter. Description: SV40 promoter activity, luciferase assay in SW480/SV40-Luc cells. Format: cell-based, human. As to conditions: for SV40 promoter inhibitory activity IC50: SW480/SV40-Luc cells, luciferase; for IC50: Homo sapiens, SW480, read-out: SV40 promoter inhibitory activity IC50. An outline of the steps: as §1
Data set [1] concerns human colon cancer SW480 cells. Description: Inhibitory action on the proliferation of SW480 cells. Format: cell-based. As to conditions: 48 hours, TetraColor ONE; for IC50: Homo sapiens, SW480. An outline of the steps:
(§2)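 Cells seeded overnight (SW480 2000/well in 10% FBS/RPMI1640; A549, HT-29 1000/well in 10% FBS DMEM or DMEM F12 HAM), then compound-treated at 37 °C, 5% CO2 for 48 h (SW480) or 96 h (A549, HT-29). Viable cells counted by TetraColor ONE; IC50 for 50% proliferation inhibition.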

Data set [2] deals with human colon cancer HT-29 cells. Description: Inhibitory action on the proliferation of HT-29 cells. Format: cell-based. As to conditions: 96 hours, TetraColor ONE; for IC50: Homo sapiens, HT-29. An outline of the steps: as §2
Data set [3] has as its system human non-small cell lung cancer A549 cells. In words: Inhibitory action on the proliferation of A549 cells. Format: cell-based. Particulars: 96 hours, TetraColor ONE; for IC50: Homo sapiens, A549. An outline of the steps: as §2
For data set [4], the system named is mice transplanted with mouse fibrosarcoma Meth A cells. In words: Animal toxicity test. Format: in vivo. As to conditions: intravenous days 1, 5, 9, observed three weeks. The protocol: Also, the toxicity of known phenanthroindolizidine alkaloid compounds, namely (12aS,13S)-6,7-dimethoxy-9,10,11,12,12a,13-hexahydro-9a-aza-cyclopenta[b]triphenylene-3,13-diol (known compound 1; refer to WO01/023384) and (12aS,13S)-3,6,7-trimethoxy-9,10,11,12,12a,13-hexahydro-9a-aza-cyclopenta[b]triphenylene-13-ol (known compound 2; refer to Planta Med., 2002, 68: 186-188), was simultaneously studied. To a control group, a physiological saline solution, a solvent, was administered. As a result, as shown in the following Tables 35 and 36, all the mice survived in a group administered with the compound of the present invention.

On to `COc1cc2c3c(c4ccc(OC(C)=O)cc4c2cc1OC)[C@H](OC(C)=O)[C@@H]1CCCN1C3.Cl` [Compound 8, acetic acid(12aS,13S)-3-acetoxy-6,7-dimethoxy-9,10,11,12,12a,13-hexahydro-9a-aza-cyclopenta[b]triphenylene-13-yl ester hydrochloride], for which the “NFκB inhibitory activity IC50” value with NFκB is reported as 63.2 ng/mL. Also, in the data set with SV40 promoter, the “SV40 promoter inhibitory activity IC50” value was greater than 1000 ng/mL. Moreover, the “SW480 proliferation inhibitory action IC50” value in data set [1] is 17.0 ng/mL. Also, in data set [2], the “HT-29 proliferation inhibitory action IC50” value is recorded as 5.8 ng/mL. In data set [3], the “A549 proliferation inhibitory action IC50” value is given as 1.5 ng/mL. In addition, the Mortality rate in data set [4] (total dose 25 mg/kg) and in data set [4] (total dose 50 mg/kg) was 0/5 throughout.
`COc1cc2c3c(c4ccc(OC(=O)N5CCC(N6CCCCC6)CC5)cc4c2cc1OC)[C@H](O)[C@@H]1CCCN1C3` [Compound 13, [1,4′]bipiperidinyl-1′-carboxylic acid(12aS,13S)-13-hydroxy-6,7-dimethoxy-9,10,11,12,12a,13-hexahydro-9a-aza-cyclopenta[b]triphenylene-3-yl ester]: in the data set on NFκB, the “NFκB inhibitory activity IC50” value is on record as 20.3 ng/mL. Moreover, the “SV40 promoter inhibitory activity IC50” value in the data set with SV40 promoter is greater than 1000 ng/mL. Besides, the “SW480 proliferation inhibitory action IC50” value in data set [1] is recorded as 19.5 ng/mL. The “HT-29 proliferation inhibitory action IC50” value in data set [2] is 21.6 ng/mL. Besides, the “A549 proliferation inhibitory action IC50” value in data set [3] is 7.4 ng/mL. Moreover, the Mortality rate in data set [4] (total dose 25 mg/kg) and in data set [4] (total dose 50 mg/kg) was 0/5 in each case.
Consider `COc1cc2c3c(c4ccc(OC(C)=O)cc4c2cc1OC)C(F)[C@@H]1CCCN1C3.Cl` (stereo partly drawn) [Compound 14, acetic acid(S)-13-fluoro-6,7-dimethoxy-9,10,11,12,12a,13-hexahydro-9a-aza-cyclopenta[b]triphenylene-3-yl ester hydrochloride], for which the “NFκB inhibitory activity IC50” value in the data set with NFκB is given as 1.7 ng/mL. The “SV40 promoter inhibitory activity IC50” value in the data set on SV40 promoter is given as greater than 100 ng/mL. In addition, in data set [1], the “SW480 proliferation inhibitory action IC50” value is on record as 2.1 ng/mL. Besides, the “HT-29 proliferation inhibitory action IC50” value in data set [2] turned out to be 0.62 ng/mL. For the same compound, in data set [3], the “A549 proliferation inhibitory action IC50” value is 0.23 ng/mL. In addition, the Mortality rate in data set [4] (total dose 25 mg/kg) and in data set [4] (total dose 50 mg/kg) was 0/5 each time.
Turning to `COc1cc2c3c(c4ccc(OC(=O)c5cccs5)cc4c2cc1OC)[C@H](O)[C@@H]1CCCN1C3.Cl` [Compound 19, thiophene-2-carboxylic acid(12aS,13S)-13-hydroxy-6,7-dimethoxy-9,10,11,12,12a,13-hexahydro-9a-aza-cyclopenta[b]triphenylene-3-yl ester hydrochloride], the “NFκB inhibitory activity IC50” value with NFκB is 3.0 ng/mL. The “SV40 promoter inhibitory activity IC50” value with SV40 promoter is greater than 100 ng/mL. For the same compound, the “SW480 proliferation inhibitory action IC50” value in data set [1] is recorded as 1.3 ng/mL. Further, the “HT-29 proliferation inhibitory action IC50” value in data set [2] came to 1.69 ng/mL. Also, the “A549 proliferation inhibitory action IC50” value in data set [3] was determined as 0.82 ng/mL. For the same compound, the Mortality rate in data set [4] (total dose 25 mg/kg) and in data set [4] (total dose 50 mg/kg) was 0/5 each time.
For the compound `COc1cc2c3c(c4ccc(OC(=O)N(C)C)cc4c2cc1OC)[C@H](O)[C@@H]1CCCN1C3.Cl` [Compound 21, dimethyl-carbamic acid(12aS,13S)-13-hydroxy-6,7-dimethoxy-9,10,11,12,12a,13-hexahydro-9a-aza-cyclopenta[b]triphenylene-3-yl ester hydrochloride], in the data set on NFκB, the “NFκB inhibitory activity IC50” value was found to be 23.3 ng/mL. In addition, the “SV40 promoter inhibitory activity IC50” value in the data set with SV40 promoter was greater than 10000 ng/mL. The “SW480 proliferation inhibitory action IC50” value in data set [1] came out at 38.3 ng/mL. Moreover, the “HT-29 proliferation inhibitory action IC50” value in data set [2] turned out to be 24.2 ng/mL. For the same compound, the “A549 proliferation inhibitory action IC50” value in data set [3] was determined as 16.4 ng/mL. For the same compound, the Mortality rate in data set [4] (total dose 25 mg/kg) and in data set [4] (total dose 50 mg/kg) was 0/5 each time.
Regarding `C#CCOC(=O)Oc1ccc2c3c(c4cc(OC)c(OC)cc4c2c1)CN1CCC[C@H]1[C@H]3O.Cl` [Compound 27, carbonic acid(12aS,13S)-13-hydroxy-6,7-dimethoxy-9,10,11,12,12a,13-hexahydro-9a-aza-cyclopenta[b]triphenylene-3-yl ester-propyn-2-yl ester hydrochloride], the “NFκB inhibitory activity IC50” value in the data set on NFκB was found to be 0.37 ng/mL. Also, the “SV40 promoter inhibitory activity IC50” value in the data set on SV40 promoter is greater than 10 ng/mL. Besides, the “SW480 proliferation inhibitory action IC50” value in data set [1] turned out to be 0.66 ng/mL. In data set [2], the “HT-29 proliferation inhibitory action IC50” value is 0.055 ng/mL. Moreover, in data set [3], the “A549 proliferation inhibitory action IC50” value was found to be 0.025 ng/mL. Further, the Mortality rate in data set [4] (total dose 25 mg/kg) and in data set [4] (total dose 50 mg/kg) was 0/5 throughout.
Consider `CCOC(=O)Oc1ccc2c3c(c4cc(OC)c(OC)cc4c2c1)CN1CCC[C@H]1[C@H]3O.Cl` [Compound 28, carbonic acid ethyl ester(12aS,13S)-13-hydroxy-6,7-dimethoxy-9,10,11,12,12a,13-hexahydro-9a-aza-cyclopenta[b]triphenylene-3-yl ester hydrochloride], for which the “NFκB inhibitory activity IC50” value in the data set with NFκB was 1.0 ng/mL. For the same compound, in the data set on SV40 promoter, the “SV40 promoter inhibitory activity IC50” value is listed as greater than 10 ng/mL. For the same compound, the “SW480 proliferation inhibitory action IC50” value in data set [1] is 0.65 ng/mL. In data set [2], the “HT-29 proliferation inhibitory action IC50” value is given as 0.064 ng/mL. The “A549 proliferation inhibitory action IC50” value in data set [3] worked out at 0.037 ng/mL. Moreover, the Mortality rate in data set [4] (total dose 25 mg/kg) and in data set [4] (total dose 50 mg/kg) was 0/5 each time.
Regarding `COc1cc2c3c(c4cc(O)ccc4c2cc1OC)[C@H](O)[C@@H]1CCCN1C3.Cl` [Compound 29, (12aS,13S)-6,7-dimethoxy-9,10,11,12,12a,13-hexahydro-9a-aza-cyclopenta[b]triphenylene-2,13-diol hydrochloride], the IC50 in the data set with NFκB is 1.4 ng/mL; with SV40 promoter it was greater than 1000 ng/mL; in data set [1], 4 ng/mL; in data set [2], 2.5 ng/mL; in data set [3] it was 1.7 ng/mL. The Mortality rate in data set [4] (total dose 25 mg/kg) and in data set [4] (total dose 50 mg/kg) was 0/5 throughout.
For `COc1cc2c3c(c4ccc(F)cc4c2cc1OC)C[C@@H]1CCCN1C3.Cl` [Compound 31, (S)-3-fluoro-6,7-dimethoxy-9,10,11,12,12a,13-hexahydro-9a-aza-cyclopenta[b]triphenylene hydrochloride], the half-inhibitory concentration (IC50) is 28.8 ng/mL in the data set on NFκB; greater than 1000 ng/mL in the data set with SV40 promoter; 50.2 ng/mL in data set [1]; 10.6 ng/mL in data set [2]; 1.5 ng/mL in data set [3]. Also, the Mortality rate in data set [4] (total dose 25 mg/kg) and in data set [4] (total dose 50 mg/kg) was 0/5 each time.
For `COc1cc2c3c(c4ccccc4c2cc1OC)C[C@@H]1CCCN1C3.Cl` [Compound 32, (S)-6,7-dimethoxy-9,10,11,12,12a,13-hexahydro-9a-aza-cyclopenta[b]triphenylene hydrochloride], the IC50 in the data set with NFκB was 27.8 ng/mL; in the data set on SV40 promoter, greater than 100 ng/mL; in data set [1] it was 39.3 ng/mL; in data set [2], 3.1 ng/mL; in data set [3] it was 0.7 ng/mL. The Mortality rate in data set [4] (total dose 25 mg/kg) and in data set [4] (total dose 50 mg/kg) was 0/5 throughout.
`COc1cc2c3c(c4cc(O)ccc4c2cc1OC)C[C@@H]1CCCN1C3.Cl` [Compound 33, (S)-6,7-dimethoxy-9,10,11,12,12a,13-hexahydro-9a-aza-cyclopenta[b]triphenylene-2-ol hydrochloride]: the IC50 in the data set with NFκB was 5.3 ng/mL; with SV40 promoter, greater than 100 ng/mL; in data set [1], 10.8 ng/mL; in data set [2], 6.4 ng/mL; in data set [3], 0.97 ng/mL. In addition, the Mortality rate in data set [4] (total dose 25 mg/kg) and in data set [4] (total dose 50 mg/kg) was 0/5 throughout.
`COc1cc2c3c(c4ccc(OC(C)=O)cc4c2cc1OC)C[C@@H]1CCCN1C3.Cl` [Compound 34, acetic acid(S)-6,7-dimethoxy-9,10,11,12,12a,13-hexahydro-9a-aza-cyclopenta[b]triphenylene-3-yl ester hydrochloride]: in the data set with NFκB, the “NFκB inhibitory activity IC50” value amounted to 0.026 ng/mL. Besides, the “SV40 promoter inhibitory activity IC50” value in the data set with SV40 promoter is listed as greater than 100 ng/mL. The “SW480 proliferation inhibitory action IC50” value in data set [1] was determined as 0.042 ng/mL. The “HT-29 proliferation inhibitory action IC50” value in data set [2] worked out at 0.52 ng/mL. In data set [3], the “A549 proliferation inhibitory action IC50” value came to 0.18 ng/mL. Moreover, the Mortality rate in data set [4] (total dose 25 mg/kg) and in data set [4] (total dose 50 mg/kg) was 0/5 throughout.
With `COC(=O)CCC(=O)Oc1ccc2c3c(c4cc(OC)c(OC)cc4c2c1)CN1CCC[C@H]1C3.Cl` [Compound 36, succinic acid(S)-6,7-dimethoxy-9,10,11,12,12a,13-hexahydro-9a-aza-cyclopenta[b]triphenylene-3-yl ester methyl ester hydrochloride], the “NFκB inhibitory activity IC50” value in the data set with NFκB stood at 0.64 ng/mL. Besides, the “SV40 promoter inhibitory activity IC50” value in the data set with SV40 promoter is recorded as greater than 100 ng/mL. In addition, the “SW480 proliferation inhibitory action IC50” value in data set [1] is 0.96 ng/mL. In data set [2], the “HT-29 proliferation inhibitory action IC50” value is recorded as 2.3 ng/mL. For the same compound, the “A549 proliferation inhibitory action IC50” value in data set [3] turned out to be 0.82 ng/mL. The Mortality rate in data set [4] (total dose 25 mg/kg) and in data set [4] (total dose 50 mg/kg) was 0/5 each time.
